Measured values: patent US8574563B2 (Bristol-Myers Squibb Company, priority 2006, dated 2013)
pEC50: −log10 of the molar value.

System: HCV 1b-377-neo replicon cells
Assay: HCV replicon assay, HCV 1b-377-neo replicon cells (1b FRET)
Format: cell-based, Hepatitis C virus genotype 1b
Details: HCV 1b-377-neo replicon cells, HCV 1b genotype; for pEC50: Hepatitis C virus, read-out: EC50 range against HCV 1b (Table 2, Range)
Procedure, shortened: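 FRET-based replicon assay in HCV 1b-377-neo cells, including a comparison line carrying the NS5A Y2065H mutation that confers resistance to a reference compound.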

## COC(=O)N[C@@H](CC(=O)N(C)C)C(=O)N1CCC[C@H]1c1ncc(-c2ccc(-c3ccc(-c4cnc([C@@H]5CCCN5C(=O)[C@@H](NC(=O)OC)C(C)C)[nH]4)cc3)cc2)[nH]1 [Example M113, methyl ((1S)-3-(dimethylamino)-1-(((2S)-2-(5-(4′-(2-((2S)-1-((2S)-2-((methoxycarbonyl)amino)-3-methylbutanoyl)-2-pyrrolidinyl)-1H-imidazol-5-yl)-4-biphenylyl)-1H-imidazol-2-yl)-1-pyrrolidinyl)carbonyl)-3-oxopropyl)carbamate]
  pEC50: 7.00 to 9.00

## COC(=O)N[C@@H](C)C(=O)N1[C@@H]2C[C@@H]2C[C@H]1c1ncc(-c2ccc(-c3ccc(-c4cnc([C@@H]5C[C@H]6C[C@H]6N5C(=O)[C@H](C)NC(=O)OC)[nH]4)cc3)cc2)[nH]1 [Example M132, methyl ((1S)-2-((1R,3S,5R)-3-(4-(4′-(2-((1R,3S,5R)-2-(N-(methoxycarbonyl)-L-alanyl)-2-azabicyclo[3.1.0]hex-3-yl)-1H-imidazol-4-yl)-4-biphenylyl)-1H-imidazol-2-yl)-2-azabicyclo[3.1.0]hex-2-yl)-1-methyl-2-oxoethyl)carbamate]
  pEC50: 9.00 to 12.00

## COC(=O)N[C@H](C(=O)N1CCC[C@H]1c1ncc(-c2ccc(-c3ccc(-c4cnc([C@@H]5CCCN5C(=O)[C@@H](NC(=O)OC)C(C)(C)C)[nH]4)cc3)cc2)[nH]1)C(C)(C)C [Example M24, methyl ((1S)-1-(((2S)-2-(5-(4′-(2-((2S)-1-((2S)-2-((methoxycarbonyl)amino)-3,3-dimethylbutanoyl)-2-pyrrolidinyl)-1H-imidazol-5-yl)-4-biphenylyl)-1H-imidazol-2-yl)-1-pyrrolidinyl)carbonyl)-2,2-dimethylpropyl)carbamate]
  pEC50: 7.00 to 9.00

## COC(=O)N[C@@H](C(=O)N[C@@H](C)c1ncc(-c2ccc(-c3ncc(-c4cnc([C@@H]5CCCN5C(=O)[C@H](NC(=O)OC)c5ccccc5)[nH]4)cn3)cc2)[nH]1)c1ccccc1 [Example 152j-15, methyl ((1R)-2-((2S)-2-(5-(2-(4-(2-((1S)-1-(((2R)-2-((methoxycarbonyl)amino)-2-phenylacetyl)amino)ethyl)-1H-imidazol-5-yl)phenyl)-5-pyrimidinyl)-1H-imidazol-2-yl)-1-pyrrolidinyl)-2-oxo-1-phenylethyl)carbamate]
  pEC50: 9.00 to 12.00

## Cc1nc([C@@H]2CCCN2C(=O)[C@@H](c2ccccc2)N(C)C)[nH]c1-c1ccc(-c2ccc(-c3nc([C@@H]4CCCN4C(=O)[C@@H](c4ccccc4)N(C)C)[nH]c3C)cc2)cc1 [Example E5g, (1R,1′R)-2,2′-(4,4′-biphenyldiylbis((4-methyl-1H-imidazole-5,2-diyl)(2S)-2,1-pyrrolidinediyl))bis(N,N-dimethyl-2-oxo-1-phenylethanamine)]
  pEC50: 9.00 to 12.00

## COC(=O)N[C@H](C(=O)N1CCC[C@H]1c1ncc(-c2ccc(-c3ccc(-c4cnc([C@@H]5CCCN5C(=O)[C@H](Nc5ncccn5)C(C)C)[nH]4)cc3)cc2)[nH]1)C(C)C [cj-11i, methyl ((1S)-2-methyl-1-(((2S)-2-(5-(4′-(2-((2S)-1-(N-2-pyrimidinyl-D-valyl)-2-pyrrolidinyl)-1H-imidazol-5-yl)-4-biphenylyl)-1H-imidazol-2-yl)-1-pyrrolidinyl)carbonyl)propyl)carbamate]
  pEC50: 9.00 to 12.00

## COC(=O)N[C@@H](C(=O)N1CCC[C@@H]1c1ncc(-c2ccc(-c3ccc(-c4cnc([C@H]5CCCN5C(=O)[C@H](NC(=O)OC)C5CC5)[nH]4)cc3)cc2)[nH]1)C1CC1 [Example M29]
  EC50 range against HCV 1b (Table 2, Range): >A

## COC(=O)N[C@@H](CC(=O)N1CCC[C@H]1c1ncc(-c2ccc(-c3ccc(-c4cnc([C@@H]5CCCN5C(=O)C[C@@H](Cc5cccs5)NC(=O)OC)[nH]4)cc3)cc2)[nH]1)Cc1cccs1 [cj-138, dimethyl (4,4′-biphenyldiylbis(1H-imidazole-5,2-diyl(2S)-2,1-pyrrolidinediyl((2S)-4-oxo-1-(2-thienyl)-4,2-butanediyl)))biscarbamate]
  pEC50: 5.00 to 6.00

## CCN(CC)[C@@H](C(=O)N1C[C@@H](F)C[C@H]1c1ncc(-c2ccc(-c3ccc(-c4cnc([C@@H]5C[C@H](F)CN5C(=O)[C@@H](c5ccccc5)N(CC)CC)[nH]4)cc3)cc2)[nH]1)c1ccccc1 [Example 24-6]
  pEC50: 9.00 to 12.00

## COC(=O)NC1CCC(C(=O)N2CCC[C@H]2c2ncc(-c3ccc(-c4ccc(-c5cnc([C@@H]6CCCN6C(=O)C6CCC(NC(=O)OC)C6)[nH]5)cc4)cc3)[nH]2)C1 (stereo in doubt) [cj-149, dimethyl (4,4′-biphenyldiylbis(1H-imidazole-5,2-diyl(2S)-2,1-pyrrolidinediylcarbonyl(1R,3S)-3,1-cyclopentanediyl))biscarbamate]
  pEC50: 7.00 to 9.00

## COC(=O)N(C)[C@H](C(=O)N1CCC[C@H]1c1ncc(-c2ccc(-c3ccc(-c4cnc([C@@H]5CCCN5C(=O)[C@H](C(C)C)N(C)C(=O)OC)[nH]4)cc3)cc2)[nH]1)C(C)C [Example M11, methyl ((1S)-1-(((2S)-2-(5-(4′-(2-((2S)-1-((2S)-2-((methoxycarbonyl)(methyl)amino)-3-methylbutanoyl)-2-pyrrolidinyl)-1H-imidazol-5-yl)-4-biphenylyl)-1H-imidazol-2-yl)-1-pyrrolidinyl)carbonyl)-2-methylpropyl)methyl-carbamate]
  pEC50: 7.00 to 9.00

## COC(=O)N[C@@H](C)C(=O)N1CCC[C@H]1c1ncc(-c2ccc(-c3ccc(-c4cnc([C@@H]5CCCN5C(=O)[C@@H](NC(=O)OC)C(C)C)[nH]4)cc3)cc2F)[nH]1 [Example D41, methyl ((1S)-1-(((2S)-2-(5-(3′-fluoro-4′-(2-((2S)-1-(N-(methoxycarbonyl)-L-alanyl)-2-pyrrolidinyl)-1H-imidazol-5-yl)-4-biphenylyl)-1H-imidazol-2-yl)-1-pyrrolidinyl)carbonyl)-2-methylpropyl) carbamate]
  pEC50: 9.00 to 12.00

## O=C(c1ccccc1F)N1CCC[C@H]1c1ncc(-c2ccc(-c3ccc(-c4cnc([C@@H]5CCCN5C(=O)[C@@H](c5ccccc5)N5CCCCC5)[nH]4)cc3)cc2)[nH]1 [Example 107-3, 1-((1R)-2-((2S)-2-(5-(4′-(2-((2S)-1-(2-fluorobenzoyl)-2-pyrrolidinyl)-1H-imidazol-5-yl)-4-biphenylyl)-1H-imidazol-2-yl)-1-pyrrolidinyl)-2-oxo-1-phenylethyl) piperidine]
  pEC50: 9.00 to 12.00

## COc1ccccc1OCC(=O)N1CCC[C@H]1c1ncc(-c2ccc(-c3ccc(-c4cnc([C@@H]5CCCN5C(=O)[C@@H](c5ccccc5)N5CCCCC5)[nH]4)cc3)cc2)[nH]1 [Example 107-8, 1-((1R)-2-((2S)-2-(5-(4′-(2-((2S)-1-((2-methoxyphenoxy)acetyl)-2-pyrrolidinyl)-1H-imidazol-5-yl)-4-biphenylyl)-1H-imidazol-2-yl)-1-pyrrolidinyl)-2-oxo-1-phenylethyl) piperidine]
  pEC50: 9.00 to 12.00

## COC(=O)N[C@@H](C(=O)N1CCC[C@H]1c1ncc(-c2ccc(-c3ccc(-c4cnc([C@@H]5CCCN5C(=O)C(c5ccsc5)N(C)C)[nH]4)cc3)cc2)[nH]1)c1ccccc1 (stereo partly drawn) [Example 84-47, methyl ((1R)-2-((2S)-2-(5-(4′-(2-((2S)-1-((dimethylamino)(3-thienyl)acetyl)-2-pyrrolidinyl)-1H-imidazol-5-yl)-4-biphenylyl)-1H-imidazol-2-yl)-1-pyrrolidinyl)-2-oxo-1-phenylethyl)carbamate]
  pEC50: 9.00 to 12.00
